Test results published in ChEMBL document CHEMBL1201862, “PubChem BioAssay data set” (2004).
Calls of active or inactive are those of the source.

Experiments:
[1] = target: Induced myeloid leukemia cell differentiation protein Mcl-1 (Homo sapiens, UniProt Q07820); type: functional
[2] = system: Streptococcus sp. 'group A'; assay: growth inhibition of control SK(-) GAS strain, dose response, counter-screen for streptokinase expression inhibitor project, luminescence, kanamycin, BacTiterGlo, confirmation (AID 1900); type: functional, organism-based
[3] = target: T1, Streptokinase A (Streptococcus pyogenes serotype M1, UniProt P10520); assay: S. pyogenes streptokinase expression inhibitors, potency, dose response, plasminogen activation absorbance, OD405 (AID 1914); type: functional, Streptococcus pyogenes M1 GAS;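 note: secreted streptokinase activity via plasminogen activation per viability signal from cell pellet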
T1 sequence (P10520 whole entry): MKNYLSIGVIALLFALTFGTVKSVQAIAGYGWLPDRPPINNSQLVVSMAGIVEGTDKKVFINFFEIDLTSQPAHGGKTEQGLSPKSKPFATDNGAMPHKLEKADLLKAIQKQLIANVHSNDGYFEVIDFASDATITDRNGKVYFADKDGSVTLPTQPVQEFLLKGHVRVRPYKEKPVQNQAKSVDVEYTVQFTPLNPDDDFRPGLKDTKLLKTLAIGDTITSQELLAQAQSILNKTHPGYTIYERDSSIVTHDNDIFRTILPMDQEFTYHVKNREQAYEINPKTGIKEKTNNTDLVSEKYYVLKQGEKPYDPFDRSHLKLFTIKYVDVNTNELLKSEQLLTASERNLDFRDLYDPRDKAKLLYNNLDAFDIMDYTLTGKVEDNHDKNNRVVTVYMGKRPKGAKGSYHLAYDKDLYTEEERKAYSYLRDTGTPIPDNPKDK

[4] = system: Streptococcus; assay: Group A Streptococcus viability loss, dose response, counter-screen for streptokinase expression inhibitor project, luminescence, BacTiterGlo (AID 1915); type: functional, organism-based;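 note: potency for reduction of bacterial viability or growth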
[5] = target: T2, High affinity choline transporter 1 (Homo sapiens, UniProt Q9GZV3); assay: CHT inhibitors, dose response, cell-based, 5-point CRC, membrane potential dye (AID 504840); type: functional
T2 sequence (Q9GZV3 whole entry): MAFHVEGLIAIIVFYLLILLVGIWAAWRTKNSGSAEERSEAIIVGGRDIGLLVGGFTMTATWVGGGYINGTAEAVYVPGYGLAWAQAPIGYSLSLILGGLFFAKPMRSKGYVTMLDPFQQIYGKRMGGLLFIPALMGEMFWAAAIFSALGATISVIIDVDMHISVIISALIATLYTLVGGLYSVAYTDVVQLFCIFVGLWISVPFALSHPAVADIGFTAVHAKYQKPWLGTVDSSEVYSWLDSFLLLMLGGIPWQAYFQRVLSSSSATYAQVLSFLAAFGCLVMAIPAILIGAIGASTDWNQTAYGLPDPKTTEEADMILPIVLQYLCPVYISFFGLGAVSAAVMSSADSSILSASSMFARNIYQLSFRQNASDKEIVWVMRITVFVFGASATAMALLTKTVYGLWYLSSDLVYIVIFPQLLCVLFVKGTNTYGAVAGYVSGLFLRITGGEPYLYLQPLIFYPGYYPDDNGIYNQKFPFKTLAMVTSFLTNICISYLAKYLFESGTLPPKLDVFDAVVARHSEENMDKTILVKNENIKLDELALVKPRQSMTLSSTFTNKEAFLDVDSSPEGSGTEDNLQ

[6] = target: T3, Calpain-2 catalytic subunit (Sus scrofa, UniProt P43367); assay: pig calpain II inhibitor potency, dose response, biochemical, fluorogenic peptide substrate (AID 1420); type: functional
T3 sequence (P43367 whole entry): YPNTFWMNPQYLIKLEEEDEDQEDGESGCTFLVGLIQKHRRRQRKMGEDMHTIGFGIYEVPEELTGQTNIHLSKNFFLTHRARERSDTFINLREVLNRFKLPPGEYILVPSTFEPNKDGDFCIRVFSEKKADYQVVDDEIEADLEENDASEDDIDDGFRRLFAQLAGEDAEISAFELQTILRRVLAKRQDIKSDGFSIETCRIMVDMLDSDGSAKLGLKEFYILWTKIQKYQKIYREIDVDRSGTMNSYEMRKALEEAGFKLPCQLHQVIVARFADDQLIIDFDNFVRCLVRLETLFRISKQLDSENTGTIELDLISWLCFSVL

[7] = target: Eukaryotic translation initiation factor 4E (Mus musculus, UniProt P63073); assay: eIF4E–eIF4G protein interaction inhibitors, dose response, biochemical, TR-FRET (AID 855); type: functional;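 note: potency for disrupting eIF4E binding to eIF4GI seen as loss of FRET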
[8] = target: T4, DNA repair and recombination protein RAD54-like (Homo sapiens, UniProt Q92698); assay: inhibitors of human RAD54 branch migration, confirmation, biochemical, fluorescence, cherry-picked samples, dose series (AID 651657); type: functional
T4 sequence (Q92698 whole entry): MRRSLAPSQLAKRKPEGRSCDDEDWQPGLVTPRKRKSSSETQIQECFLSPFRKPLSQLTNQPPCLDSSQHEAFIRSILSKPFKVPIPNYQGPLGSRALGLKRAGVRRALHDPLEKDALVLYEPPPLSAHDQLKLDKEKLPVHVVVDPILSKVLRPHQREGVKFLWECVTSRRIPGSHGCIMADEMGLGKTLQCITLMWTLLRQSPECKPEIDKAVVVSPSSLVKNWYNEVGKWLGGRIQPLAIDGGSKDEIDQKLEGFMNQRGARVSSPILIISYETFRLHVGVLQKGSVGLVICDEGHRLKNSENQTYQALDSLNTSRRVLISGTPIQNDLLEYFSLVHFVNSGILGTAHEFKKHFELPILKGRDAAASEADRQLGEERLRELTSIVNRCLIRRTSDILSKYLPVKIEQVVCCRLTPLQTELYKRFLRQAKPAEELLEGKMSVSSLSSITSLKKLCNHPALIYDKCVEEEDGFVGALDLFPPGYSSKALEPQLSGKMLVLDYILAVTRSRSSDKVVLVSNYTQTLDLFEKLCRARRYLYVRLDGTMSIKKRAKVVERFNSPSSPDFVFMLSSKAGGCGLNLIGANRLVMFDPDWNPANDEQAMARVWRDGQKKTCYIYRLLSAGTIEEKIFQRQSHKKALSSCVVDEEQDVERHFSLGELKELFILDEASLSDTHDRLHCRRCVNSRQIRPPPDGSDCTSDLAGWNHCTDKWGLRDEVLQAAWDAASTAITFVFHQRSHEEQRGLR

[9] = target: T5, Cytochrome P450 2C9 (Homo sapiens, UniProt P11712)
[10] = target: Cytochrome P450 3A4 (Homo sapiens, UniProt P08684);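 note: CYP3A4 tested as one member of a cytochrome P450 panel screen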
[11] = target: T6, Corticotropin-releasing factor receptor 2/Corticotropin-releasing factor-binding protein (Homo sapiens, UniProt P24387+Q13324); assay: Dose Response confirmation of uHTS hits for small molecule antagonists of the CRF-binding protein and CRF-R2 receptor complex.; type: functional; conditions: read-out: IC50_Mean
T6 sequence (Q13324 whole entry): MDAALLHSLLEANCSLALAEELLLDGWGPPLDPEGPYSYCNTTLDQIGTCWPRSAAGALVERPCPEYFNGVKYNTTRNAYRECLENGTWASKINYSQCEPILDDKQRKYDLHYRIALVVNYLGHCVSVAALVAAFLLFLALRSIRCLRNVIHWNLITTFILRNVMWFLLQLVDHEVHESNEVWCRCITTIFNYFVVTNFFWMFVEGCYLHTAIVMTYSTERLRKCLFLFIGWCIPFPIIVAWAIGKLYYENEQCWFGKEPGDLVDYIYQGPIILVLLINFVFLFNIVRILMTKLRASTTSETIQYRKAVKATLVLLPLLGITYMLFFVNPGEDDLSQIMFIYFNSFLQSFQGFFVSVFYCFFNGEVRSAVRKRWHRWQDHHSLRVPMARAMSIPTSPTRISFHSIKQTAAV
T6 sequence (P24387 whole entry): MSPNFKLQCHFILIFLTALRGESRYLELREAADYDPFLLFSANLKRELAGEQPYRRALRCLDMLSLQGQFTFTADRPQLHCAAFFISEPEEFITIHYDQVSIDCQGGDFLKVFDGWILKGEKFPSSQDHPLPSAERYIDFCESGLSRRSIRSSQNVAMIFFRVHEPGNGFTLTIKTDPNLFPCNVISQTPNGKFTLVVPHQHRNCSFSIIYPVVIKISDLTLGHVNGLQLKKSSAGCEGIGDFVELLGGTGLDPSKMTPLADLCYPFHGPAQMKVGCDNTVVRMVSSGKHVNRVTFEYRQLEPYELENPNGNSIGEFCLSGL

[12] = target: T6, Corticotropin-releasing factor receptor 2/Corticotropin-releasing factor-binding protein; assay: activators of CRF receptor 2 with binding protein – uHTS hits, confirmation (AID 602473); type: functional; conditions: read-out: EC50_Mean
[13] = target: T7, Cytochrome P450 1A2 (Homo sapiens, UniProt P05177);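 note: PubChem cytochrome P450 panel assay, CYP1A2 panel member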
T7 sequence (P05177 whole entry): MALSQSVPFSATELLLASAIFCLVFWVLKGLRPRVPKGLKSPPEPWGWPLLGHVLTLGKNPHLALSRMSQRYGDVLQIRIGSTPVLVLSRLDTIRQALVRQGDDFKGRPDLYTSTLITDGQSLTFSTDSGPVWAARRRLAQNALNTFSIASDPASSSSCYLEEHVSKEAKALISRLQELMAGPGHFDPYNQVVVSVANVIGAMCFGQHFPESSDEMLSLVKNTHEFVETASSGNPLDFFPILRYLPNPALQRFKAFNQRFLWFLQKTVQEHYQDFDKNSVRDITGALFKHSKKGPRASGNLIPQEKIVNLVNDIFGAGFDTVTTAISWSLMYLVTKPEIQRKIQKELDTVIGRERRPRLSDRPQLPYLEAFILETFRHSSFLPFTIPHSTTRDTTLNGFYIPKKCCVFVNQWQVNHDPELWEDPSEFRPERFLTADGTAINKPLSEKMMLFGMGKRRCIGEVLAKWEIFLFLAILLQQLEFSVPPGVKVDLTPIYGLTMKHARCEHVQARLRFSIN

[14] = target: T8, Heat shock factor protein 1 (Mus musculus, UniProt P38532); assay: inhibition of MG132-induced HSE-luciferase signal, confirmation, cell-based, NIH3T3, luminescence, dose retest (AID 2382); type: functional;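 note: NIH3T3 fibroblasts with HSF1-driven luciferase reporter stressed by proteasome inhibitor MG132; luminescence from HSF1-driven luciferase expression after 8 hours of MG132 stress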
T8 sequence (P38532 whole entry): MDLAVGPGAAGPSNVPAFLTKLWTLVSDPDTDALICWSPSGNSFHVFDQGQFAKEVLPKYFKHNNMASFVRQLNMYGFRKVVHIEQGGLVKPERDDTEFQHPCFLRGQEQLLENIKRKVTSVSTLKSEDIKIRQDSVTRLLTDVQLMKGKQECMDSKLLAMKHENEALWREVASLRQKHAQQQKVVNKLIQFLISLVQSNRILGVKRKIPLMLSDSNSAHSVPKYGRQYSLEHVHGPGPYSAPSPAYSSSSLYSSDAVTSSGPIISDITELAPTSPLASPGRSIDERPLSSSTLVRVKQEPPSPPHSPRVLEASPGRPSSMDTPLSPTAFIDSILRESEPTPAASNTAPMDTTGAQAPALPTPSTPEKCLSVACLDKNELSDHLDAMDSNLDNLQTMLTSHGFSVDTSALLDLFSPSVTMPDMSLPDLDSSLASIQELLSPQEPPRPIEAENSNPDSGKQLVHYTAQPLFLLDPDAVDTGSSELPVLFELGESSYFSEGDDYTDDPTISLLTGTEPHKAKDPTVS

[15] = target: T5, Cytochrome P450 2C9; remark: listed apart in the source

Induced myeloid leukemia cell differentiation protein Mcl-1, sequence (Q07820 whole entry): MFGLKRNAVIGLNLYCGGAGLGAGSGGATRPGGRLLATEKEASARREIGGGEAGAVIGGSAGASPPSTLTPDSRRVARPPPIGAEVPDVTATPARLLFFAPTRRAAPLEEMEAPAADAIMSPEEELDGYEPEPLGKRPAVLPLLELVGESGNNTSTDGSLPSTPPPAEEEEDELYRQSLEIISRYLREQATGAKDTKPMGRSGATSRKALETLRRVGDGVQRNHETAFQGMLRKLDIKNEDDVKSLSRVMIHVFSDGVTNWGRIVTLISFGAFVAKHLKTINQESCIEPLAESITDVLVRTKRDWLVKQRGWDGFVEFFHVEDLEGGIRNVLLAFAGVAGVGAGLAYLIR
Eukaryotic translation initiation factor 4E, sequence (P63073 whole entry): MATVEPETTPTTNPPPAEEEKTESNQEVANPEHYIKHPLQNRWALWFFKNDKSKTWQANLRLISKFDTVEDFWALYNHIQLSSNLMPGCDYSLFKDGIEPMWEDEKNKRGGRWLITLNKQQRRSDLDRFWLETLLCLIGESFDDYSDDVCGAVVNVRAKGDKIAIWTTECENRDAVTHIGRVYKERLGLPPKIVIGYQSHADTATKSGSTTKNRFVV
T5 sequence (P11712 whole entry): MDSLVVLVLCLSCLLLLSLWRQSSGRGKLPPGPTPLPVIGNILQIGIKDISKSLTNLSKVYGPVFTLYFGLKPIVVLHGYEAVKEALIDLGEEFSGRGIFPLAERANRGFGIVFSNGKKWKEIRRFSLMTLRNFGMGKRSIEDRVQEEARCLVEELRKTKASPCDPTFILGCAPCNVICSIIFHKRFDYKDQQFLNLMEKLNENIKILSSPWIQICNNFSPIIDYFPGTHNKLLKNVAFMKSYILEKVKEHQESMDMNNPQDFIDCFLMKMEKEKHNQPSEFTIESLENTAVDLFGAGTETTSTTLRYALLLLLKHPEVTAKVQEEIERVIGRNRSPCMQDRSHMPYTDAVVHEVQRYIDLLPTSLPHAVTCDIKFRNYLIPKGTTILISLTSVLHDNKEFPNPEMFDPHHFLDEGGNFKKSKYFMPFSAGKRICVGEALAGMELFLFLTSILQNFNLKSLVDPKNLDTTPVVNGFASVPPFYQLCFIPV
Cytochrome P450 3A4, sequence (P08684 whole entry): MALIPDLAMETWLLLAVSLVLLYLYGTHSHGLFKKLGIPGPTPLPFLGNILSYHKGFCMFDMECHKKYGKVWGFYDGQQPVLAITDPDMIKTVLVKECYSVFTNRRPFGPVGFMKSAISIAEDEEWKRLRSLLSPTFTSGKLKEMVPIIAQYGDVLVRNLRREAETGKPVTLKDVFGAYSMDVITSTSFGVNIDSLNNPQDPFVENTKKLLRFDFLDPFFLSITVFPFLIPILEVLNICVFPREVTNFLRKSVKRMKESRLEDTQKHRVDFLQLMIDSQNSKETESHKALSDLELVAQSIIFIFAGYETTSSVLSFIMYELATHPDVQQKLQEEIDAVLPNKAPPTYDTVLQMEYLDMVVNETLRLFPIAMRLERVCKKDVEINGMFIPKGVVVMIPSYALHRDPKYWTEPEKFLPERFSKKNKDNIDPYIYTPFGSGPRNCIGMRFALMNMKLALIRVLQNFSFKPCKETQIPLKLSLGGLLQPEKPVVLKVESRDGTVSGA

Compound: COc1ccc2nc(NC(=O)Nc3cccc4ccccc34)sc2c1
- IC50 [1]: 5.86 µM (not active)

Compound: Cc1cc(C(=O)OCC(=O)Nc2sc3c(c2C#N)CCC(C)C3)c2ccccc2n1 (configuration not stated)
- IC50 [1]: 5.16 µM (active)

Compound: CC1CCCCC1NC(=O)CCn1ccc2cc(S(=O)(=O)N3CCCC3)ccc21 (configuration not stated)
- EC50 [2]: > 150 µM (not active)
- EC50 [3]: > 150 µM (not active)
- EC50 [4]: > 150 µM (not active)
- IC50 [5]: 17 µM (active)

Compound: CCC(=O)Nc1ccc(C(=O)N2CCN(C(=O)c3ccco3)CC2)cc1
- IC50 [6]: 25.3 µM (not active)

Compound: CC(C)CC(=O)Nc1nnc(SCC(=O)Nc2ccc(F)cc2)s1
- IC50 [6]: > 50 µM (not active)

Compound: O=C(CN1C(=O)S/C(=C\c2ccc(Cl)cc2)C1=O)NNC(=O)c1ccccc1O
- IC50 [7]: > 64 µM (inactive)

Compound: CCN1CCN(CCCNC(=O)c2cc3c(=O)oc4ccc(C)cc4c3s2)CC1
- AC50 [8]: 36.3 µM (active)

Compound: COc1ccc([N+](=O)[O-])cc1NC(=O)CC(C)c1ccccc1 (configuration not stated)
- AC50 [9]: inconclusive

Compound: Cn1c(N)c(C(=O)COC(=O)C2CCCCC2)c(=O)n(C)c1=O
- IC50 [6]: 6.73 µM (active)

Compound: FC(F)(F)c1cnc(/C=C/Nc2ccccc2Cl)c(Cl)c1
- AC50 [10]: 31.6 µM (inconclusive)
- AC50 [9]: inconclusive

Compound: O=C(C1CCN(S(=O)(=O)c2cccc3nsnc23)CC1)N1CCN(c2ccccc2F)CC1
- AC50 [9]: inconclusive

Compound: COc1ccc(OC)c(Nc2ncnc3sc(-c4ccccc4)cc23)c1
- IC50 [7]: > 64 µM (inactive)

Compound: O=C(O)c1cc(N/N=C/c2ccc(N3CCOCC3)s2)ccc1Cl
- IC50 [1]: 3.84 µM (active)

Compound: Cc1ccc(C2=NNC(=O)C(c3c[nH]c4ccccc34)C2)cc1 (configuration not stated)
- IC50 [6]: 46.4 µM (not active)

Compound: Cc1ccc(N(CC(=O)NC2CCCC2)C(=O)c2ccc(C)s2)cc1
- IC50 [6]: > 50 µM (not active)

Compound: CCNc1nc(NC(C)C)nc(Oc2ccc(=O)n(C)n2)n1
- IC50 [7]: 50 µM (inactive)

Compound: O=C(Cn1c(=O)n(-c2ccccc2)c(=O)c2sccc21)N1CCCC1
- IC50 [1]: 11.6 µM (not active)

Compound: Nc1ccccc1-c1nnc(SCc2ccccc2F)nc1O
- IC50 [7]: > 64 µM (inactive)

Compound: COc1ccccc1CNc1cc(-c2ccccc2OC)ncn1
- AC50 [9]: inconclusive

Compound: O=C1CSC(c2ccccc2F)N1c1cc(Cl)ccc1O (configuration not stated)
- IC50 [11]: > 47.1 µM (inactive)
- EC50 [12]: > 53 µM (inactive)
- AC50 [13]: 39.8 µM (inconclusive)
- AC50 [9]: inconclusive

Compound: CC(C)CC(c1nnnn1C1CCCC1)N1CCC(C(N)=O)CC1 (configuration not stated)
- IC50 [6]: > 50 µM (not active)

Compound: CCCC(=O)NCc1ccccc1Cl
- IC50 [6]: 36.3 µM (not active)

Compound: CC(C)C(NC(=O)C12CC3CC(CC(C3)C1)C2)C(=O)NC1=NCCS1 (configuration not stated)
- EC50 [14]: > 195 µM (not active)
- IC50 [7]: > 64 µM (inactive)
- AC50 [15]: 25.1 µM (inconclusive)
